Test results: patent US11759462B2, “Spirocyclic compounds as tryptophan hydroxylase inhibitors” (priority 2013, dated 2023)
Like-named read-outs stand apart in the source and are kept apart here.

Biological target: T1, Recombinant human TPH1 (MBP tagged) (Homo sapiens, UniProt P17752)
T1 construct: cloning full length human TPH1 cDNA in to a bacterial pMAL-c5E expression vector; made in house; host or cells: E. coli BL21 (DE3)
T1 sequence (P17752 1-444): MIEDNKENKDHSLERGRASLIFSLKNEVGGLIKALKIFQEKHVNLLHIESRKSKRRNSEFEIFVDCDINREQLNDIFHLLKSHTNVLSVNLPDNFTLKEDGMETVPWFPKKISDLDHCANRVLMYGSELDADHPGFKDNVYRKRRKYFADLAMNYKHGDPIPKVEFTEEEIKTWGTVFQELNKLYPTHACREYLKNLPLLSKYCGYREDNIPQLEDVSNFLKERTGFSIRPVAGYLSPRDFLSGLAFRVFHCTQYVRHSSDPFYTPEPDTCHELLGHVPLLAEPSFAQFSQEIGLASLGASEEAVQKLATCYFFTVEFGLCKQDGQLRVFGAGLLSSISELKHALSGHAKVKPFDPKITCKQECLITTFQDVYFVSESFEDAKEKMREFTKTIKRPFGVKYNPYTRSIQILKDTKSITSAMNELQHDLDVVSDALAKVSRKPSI
Assay: TPH1 in vitro inhibition assay (kinetic fluorescence)
Assay type: biochemical
Outline: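 Final mix: 15 nM MBP-TPH1, 30 μM Trp, 36 μM 6-methyltetrahydropterin, 25 μM ferrous ammonium sulfate, 50 mM MES pH 7.1, 1% DMSO, room temperature.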

[1] = read-out: TPH1 Range (TPH1 inhibition IC50)
[2] = TPH1 Range (TPH1 inhibition IC50)

Structure (SMILES) | IC50 [1] [nM] | IC50 [2] [nM]
Cc1ccn(-c2cc(-c3cccc(C(C)(C)C)c3)ccc2[C@@H](Oc2cc(N3CCC4(CC3)CN[C@H](C(=O)O)C4)nc(N)n2)C(F)(F)F)n1 [Example 1az, (S)-8-(2-amino-6-((R)-1-(3′-(tert-butyl)-3-(3-methyl-1H-pyrazol-1-yl)-[1,1′-biphenyl]-4-yl)-2,2,2-trifluoroethoxy)pyrimidin-4-yl)-2,8-diazaspiro[4.5]decane-3-carboxylic acid] | 50 to 300 | –
Cc1ccc(-c2cc(Cl)ccc2[C@@H](Oc2cc(N3CCC4(CC3)CN[C@H](C(=O)O)C4)nc(N)n2)C(F)(F)F)cc1 [Example 34bx, (S)-8-(2-amino-6-((R)-1-(5-chloro-4′-methyl-[1,1′-biphenyl]-2-yl)-2,2,2-trifluoroethoxy)pyrimidin-4-yl)-2,8-diazaspiro[4.5]decane-3-carboxylic acid] | 50 to 300 | –
Cc1cc(-c2ccc([C@@H](Oc3cc(N4CCC5(CC4)CN[C@H](C(=O)O)C5)nc(N)n3)C(F)(F)F)c(-n3ccc(C)n3)c2)cc(C(C)(C)C)c1 [Example 1bj, (S)-8-(2-amino-6-((R)-1-(3′-(tert-butyl)-5′-methyl-3-(3-methyl-1H-pyrazol-1-yl)-[1,1′-biphenyl]-4-yl)-2,2,2-trifluoroethoxy)pyrimidin-4-yl)-2,8-diazaspiro[4.5]decane-3-carboxylic acid] | 50 to 300 | –
Cc1ccn(-c2cc(-c3ccc(C)c(CO)c3)ccc2[C@@H](Oc2cc(N3CCC4(CC3)CN[C@H](C(=O)O)C4)nc(N)n2)C(F)(F)F)n1 [Example 1cq, (S)-8-(2-amino-6-((R)-2,2,2-trifluoro-1-(3′-(hydroxymethyl)-4′-methyl-3-(3-methyl-1H-pyrazol-1-yl)-[1,1′-biphenyl]-4-yl)ethoxy)pyrimidin-4-yl)-2,8-diazaspiro[4.5]decane-3-carboxylic acid] | < 50 | –
Cc1ccn(-c2cc(-c3ccc(F)c(F)c3)ccc2[C@@H](Oc2cc(N3CCC4(CC3)CN[C@H](C(=O)O)C4)nc(N)n2)C(F)(F)F)n1 [Example 1au, (S)-8-(2-amino-6-((R)-1-(3′,4′-difluoro-3-(3-methyl-1H-pyrazol-1-yl)-[1,1′-biphenyl]-4-yl)-2,2,2-trifluoroethoxy)pyrimidin-4-yl)-2,8-diazaspiro[4.5]decane-3-carboxylic acid] | 50 to 300 | –
COc1ncc(-c2ccc([C@@H](Oc3cc(N4CCC5(CC4)CN[C@H](C(=O)O)C5)nc(N)n3)C(F)(F)F)c(-n3ccc(C)n3)c2)cn1 [Example 1r, (S)-8-(2-amino-6-((R)-2,2,2-trifluoro-1-(4-(2-methoxypyrimidin-5-yl)-2-(3-methyl-1H-pyrazol-1-yl)phenyl)ethoxy)pyrimidin-4-yl)-2,8-diazaspiro[4.5]decane-3-carboxylic acid] | < 50 | –
Nc1nc(O[C@H](c2ccc(Cl)cc2-c2cccc(C(=O)N3CCN(C4CC4)CC3)c2)C(F)(F)F)cc(N2CCC3(CC2)CN[C@H](C(=O)O)C3)n1 [Example 34cr, (S)-8-(2-amino-6-((R)-1-(5-chloro-3′-(4-cyclopropylpiperazine-1-carbonyl)-[1,1′-biphenyl]-2-yl)-2,2,2-trifluoroethoxy)pyrimidin-4-yl)-2,8-diazaspiro[4.5]decane-3-carboxylic acid] | 50 to 300 | –
COc1ccc(-c2ccc([C@@H](Oc3cc(N4CCC5(CC4)CN[C@H](C(=O)O)C5)nc(N)n3)C(F)(F)F)c(-n3ccc(C)n3)c2)cn1 [Example 1s, (S)-8-(2-amino-6-((R)-2,2,2-trifluoro-1-(4-(6-methoxypyridin-3-yl)-2-(3-methyl-1H-pyrazol-1-yl)phenyl)ethoxy)pyrimidin-4-yl)-2,8-diazaspiro[4.5]decane-3-carboxylic acid] | < 50 | –
Nc1nc(O[C@H](c2ccc(Cl)cc2-c2cccnc2)C(F)(F)F)cc(N2CCC3(CC2)CN[C@H](C(=O)O)C3)n1 [Example 34bo, (S)-8-(2-amino-6-((R)-1-(4-chloro-2-(pyridin-3-yl)phenyl)-2,2,2-trifluoroethoxy)pyrimidin-4-yl)-2,8-diazaspiro[4.5]decane-3-carboxylic acid] | – | 50 to 300
CC(C)c1cccc(-c2cc(Cl)ccc2[C@@H](Oc2cc(N3CCC4(CC3)CN[C@H](C(=O)O)C4)nc(N)n2)C(F)(F)F)c1 [Example 34bi, (S)-8-(2-amino-6-((R)-1-(5-chloro-3′-isopropyl-[1,1′-biphenyl]-2-yl)-2,2,2-trifluoroethoxy)pyrimidin-4-yl)-2,8-diazaspiro[4.5]decane-3-carboxylic acid] | < 50 | –
Nc1nc(O[C@H](c2ccc(Cl)cc2-c2cccc(C(F)(F)F)c2)C(F)(F)F)cc(N2CCC3(CC2)CN[C@H](C(=O)O)C3)n1 [Example 34q, (S)-8-(2-amino-6-((R)-1-(5-chloro-3′-(trifluoromethyl)-[1,1′-biphenyl]-2-yl)-2,2,2-trifluoroethoxy)pyrimidin-4-yl)-2,8-diazaspiro[4.5]decane-3-carboxylic acid] | – | < 50
Cc1ccn(-c2ccc(-c3ccccc3)cc2[C@@H](Oc2cc(N3CCC4(CC3)CN[C@H](C(=O)O)C4)nc(N)n2)C(F)(F)F)n1 [Example 19n, (S)-8-(2-amino-6-((R)-2,2,2-trifluoro-1-(4-(3-methyl-1H-pyrazol-1-yl)-[1,1′-biphenyl]-3-yl)ethoxy)pyrimidin-4-yl)-2,8-diazaspiro[4.5]decane-3-carboxylic acid] | < 50 | –
Cc1ccn(-c2cc(-c3ccc(C(=O)N4CCNCC4)cc3)ccc2[C@@H](Oc2cc(N3CCC4(CC3)CN[C@H](C(=O)O)C4)nc(N)n2)C(F)(F)F)n1 [Example 1cj, (S)-8-(2-amino-6-((R)-2,2,2-trifluoro-1-(3-(3-methyl-1H-pyrazol-1-yl)-4′-(piperazine-1-carbonyl)-[1,1′-biphenyl]-4-yl)ethoxy)pyrimidin-4-yl)-2,8-diazaspiro[4.5]decane-3-carboxylic acid] | < 50 | –
Nc1nc(O[C@H](c2ccc(Cl)cc2-n2ccc(C(F)(F)F)n2)C(F)(F)F)cc(N2CCC3(CC2)CN[C@H](C(=O)O)C3)n1 [Example 10p, (S)-8-(2-amino-6-((R)-1-(4-chloro-2-(3-(trifluoromethyl)-1H-pyrazol-1-yl)phenyl)-2,2,2-trifluoroethoxy)pyrimidin-4-yl)-2,8-diazaspiro[4.5]decane-3-carboxylic acid] | 50 to 300 | –

The remaining lines, values ahead:

IC50 [1] [nM] | IC50 [2] [nM] | Structure (SMILES)
50 to 300 | – | COc1ccc(-c2ccc([C@@H](Oc3cc(N4CCC5(CC4)CN[C@H](C(=O)O)C5)nc(N)n3)C(F)(F)F)cc2)cc1F [Example 55e, (S)-8-(2-amino-6-((R)-2,2,2-trifluoro-1-(3′-fluoro-4′-methoxy-[1,1′-biphenyl]-4-yl)ethoxy)pyrimidin-4-yl)-2,8-diazaspiro[4.5]decane-3-carboxylic acid]
50 to 300 | – | COc1cc(F)cc(-c2ccc([C@@H](Oc3cc(N4CCC5(CC4)CN[C@H](C(=O)O)C5)nc(N)n3)C(F)(F)F)cc2)c1 [Example 55ao, (S)-8-(2-amino-6-((R)-2,2,2-trifluoro-1-(3′-fluoro-5′-methoxy-[1,1′-biphenyl]-4-yl)ethoxy)pyrimidin-4-yl)-2,8-diazaspiro[4.5]decane-3-carboxylic acid]
3000 to 10000 | – | COc1ccc(F)c(-c2ccc([C@@H](Oc3cc(N4CCC5(CC4)CN[C@H](C(=O)O)C5)nc(N)n3)C(F)(F)F)cc2)c1 [Example 55bn, (S)-8-(2-amino-6-((R)-2,2,2-trifluoro-1-(2′-fluoro-5′-methoxy-[1,1′-biphenyl]-4-yl)ethoxy)pyrimidin-4-yl)-2,8-diazaspiro[4.5]decane-3-carboxylic acid]
50 to 300 | – | Nc1nc(O[C@H](c2ccc(-c3cccc(C(F)(F)F)c3)cc2)C(F)(F)F)cc(N2CCC3(CC2)CN[C@H](C(=O)O)C3)n1 [Example 55as, (S)-8-(2-amino-6-((R)-2,2,2-trifluoro-1-(3′-(trifluoromethyl)-[1,1′-biphenyl]-4-yl)ethoxy)pyrimidin-4-yl)-2,8-diazaspiro[4.5]decane-3-carboxylic acid]
50 to 300 | – | Cc1cc(-c2ccc3ncc(F)cc3c2)ccc1[C@@H](Oc1cc(N2CCC3(CC2)CN[C@H](C(=O)O)C3)nc(N)n1)C(F)(F)F [Example 59c, (S)-8-(2-amino-6-((R)-2,2,2-trifluoro-1-(4-(3-fluoroquinolin-6-yl)-2-methylphenyl)ethoxy)pyrimidin-4-yl)-2,8-diazaspiro[4.5]decane-3-carboxylic acid]
300 to 3000 | – | Nc1nc(O[C@H](c2ccc3ccccc3c2)C(F)(F)F)cc(N2CCC3(CC2)CN[C@H](C(=O)O)C3)n1 [Example 59b, (S)-8-(2-amino-6-((R)-2,2,2-trifluoro-1-(naphthalen-2-yl)ethoxy)pyrimidin-4-yl)-2,8-diazaspiro[4.5]decane-3-carboxylic acid]
50 to 300 | – | CC(C)Oc1ccc(-c2ccc([C@@H](Oc3cc(N4CCC5(CC4)CN[C@H](C(=O)O)C5)nc(N)n3)C(F)(F)F)c(-c3ccccc3)c2)cc1 [Example 54b, (S)-8-(2-amino-6-((R)-2,2,2-trifluoro-1-(4-isopropoxy-[1,1′:3′,1″-terphenyl]-4′-yl)ethoxy)pyrimidin-4-yl)-2,8-diazaspiro[4.5]decane-3-carboxylic acid]
50 to 300 | – | CNC(=O)c1ccc(-c2ccc([C@@H](Oc3cc(N4CCC5(CC4)CN[C@H](C(=O)O)C5)nc(N)n3)C(F)(F)F)cc2)cc1 [Example 55dg, (S)-8-(2-amino-6-((R)-2,2,2-trifluoro-1-(4′-(methylcarbamoyl)-[1,1′-biphenyl]-4-yl)ethoxy)pyrimidin-4-yl)-2,8-diazaspiro[4.5]decane-3-carboxylic acid]
